Test results taken from US7932270B2 (Cytokinetics, Inc., priority 2006, dated 2011).
pIC50: −log10 of the molar value.

target: T1, chicken gizzard smooth muscle myosin subfragment-1 chemically crosslinked to cardiac or skeletal actin (Gallus gallus, UniProt P10587); assay: Smooth muscle myosin ATPase dose response assay (pyruvate kinase/horseradish peroxidase/pyruvate oxidase-coupled, amplex red fluorescence); format: biochemical; settings: read-out: IC50 Arithmetic Mean
T1 construct: chicken gizzard smooth muscle myosin subfragment-1; from tissue; host or cells: chicken gizzard
T1 sequence (P02607 2-151): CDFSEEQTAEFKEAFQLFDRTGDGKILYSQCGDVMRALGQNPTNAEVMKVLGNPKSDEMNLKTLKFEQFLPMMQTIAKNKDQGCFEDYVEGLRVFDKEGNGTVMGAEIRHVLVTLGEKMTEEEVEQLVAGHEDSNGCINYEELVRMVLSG
T1 sequence (P10587 84-789): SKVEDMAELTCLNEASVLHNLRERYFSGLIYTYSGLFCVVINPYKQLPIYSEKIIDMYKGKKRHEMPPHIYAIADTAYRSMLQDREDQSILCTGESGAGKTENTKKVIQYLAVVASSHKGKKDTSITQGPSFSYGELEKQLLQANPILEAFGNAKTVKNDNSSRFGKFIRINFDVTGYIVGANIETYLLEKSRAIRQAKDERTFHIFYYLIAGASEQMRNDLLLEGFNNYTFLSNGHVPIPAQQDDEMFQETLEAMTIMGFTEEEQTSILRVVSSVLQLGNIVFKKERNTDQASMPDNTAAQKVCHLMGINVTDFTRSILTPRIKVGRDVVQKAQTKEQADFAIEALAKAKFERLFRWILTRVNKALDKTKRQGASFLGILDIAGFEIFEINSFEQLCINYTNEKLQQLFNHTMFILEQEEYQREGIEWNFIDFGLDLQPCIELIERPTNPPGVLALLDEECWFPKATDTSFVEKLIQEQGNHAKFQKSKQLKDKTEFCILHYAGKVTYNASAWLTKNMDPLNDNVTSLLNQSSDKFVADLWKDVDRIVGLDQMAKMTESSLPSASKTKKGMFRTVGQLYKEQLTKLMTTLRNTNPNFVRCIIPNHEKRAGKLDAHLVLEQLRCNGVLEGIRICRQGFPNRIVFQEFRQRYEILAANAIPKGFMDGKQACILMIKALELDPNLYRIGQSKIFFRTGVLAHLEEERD
Procedure, shortened: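 Lead-optimization format: ATPase coupled via pyruvate kinase, pyruvate oxidase and peroxidase, pH 7.00 at 22° C, with 0.15 mM ATP, 100 mM KCl, 2 mM MgCl2, 2 mM phosphate and 0.1 mM amplex red (final). Crosslinked S1 titrated empirically for set hydrolysis rate; fluorescence (ex 480/em 615 nm) dose curves fit 4-parameter for IC50.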

| pIC50 | SMILES |
| --- | --- |
| 6.18 | CC(C)(N)CNC(=O)c1ccc(-c2ccccc2C#N)nc1NCCc1cccc(F)c1 [N-(2-amino-2-methylpropyl)(6-(2-cyanophenyl)-2-{[2-(3-fluorophenyl)ethyl]amino}(3-pyridyl))carboxamide] |
| 6.56 | N#Cc1ccccc1-c1ccc(C(=O)NCc2ccc(CN)cc2)c(NCCc2cccc(F)c2)n1 [N-{[4-(aminomethyl)phenyl]methyl}(6-(2-cyanophenyl)-2-{[2-(3-fluorophenyl)ethyl]amino}(3-pyridyl))carboxamide] |
| 4.61 | Cc1ccc(CNC(=O)c2ccc(-c3ccccc3C#N)nc2NCCc2cccc(F)c2)cc1 [(6-(2-cyanophenyl)-2-{[2-(3-fluorophenyl)ethyl]amino}(3-pyridyl))-N-[(4-methylphenyl)methyl]carboxamide] |
| 5.71 | CC(C)(C)OC(=O)N1CCC[C@@H]1CNC(=O)c1ccc(-c2ccccc2C#N)nc1NCCc1cccc(F)c1 [tert-butyl (2R)-2-{[(6-(2-cyanophenyl)-2-{[2-(3-fluorophenyl)ethyl]amino}(3-pyridyl))carbonylamino]methyl}pyrrolidinecarboxylate] |
| 4.86 | N#Cc1ccccc1-c1ccc(C(=O)NCC(CN)C(=O)NCCN)c(NCCc2cccc(F)c2)n1 (centres unmarked) [3-amino-N-(2-aminoethyl)-2-{[(6-(2-cyanophenyl)-2-{[2-(3-fluorophenyl)ethyl]amino}(3-pyridyl))carbonylamino]methyl}propanamide] |
| 5.53 | CNC(=O)CCCNC(=O)c1ccc(-c2ccccc2C#N)nc1NCCc1cccc(F)c1 [4-[(6-(2-cyanophenyl)-2-{[2-(3-fluorophenyl)ethyl]amino}(3-pyridyl))carbonylamino]-N-methylbutanamide] |
| 5.30 | CNC(=O)[C@@H](N)CCNC(=O)c1ccc(-c2ccccc2C#N)nc1NCCc1cccc(F)c1 [(2S)-2-amino-4-[(6-(2-cyanophenyl)-2-{[2-(3-fluorophenyl)ethyl]amino}(3-pyridyl))carbonylamino]-N-methylbutanamide] |
| 7.60 | N#Cc1ccccc1-c1ccc(C(=O)NC[C@H]2CCN2C(=O)CCCN)c(NCCc2cccc(F)c2)n1 [N-{[(2R)-1-(4-aminobutanoyl)azetidin-2-yl]methyl}(6-(2-cyanophenyl)-2-{[2-(3-fluorophenyl)ethyl]amino}(3-pyridyl))carboxamide] |
| 5.97 | N#Cc1ccccc1-c1ccc(C(=O)NCCO)c(NCCc2cccc(F)c2)n1 [(6-(2-cyanophenyl)-2-{[2-(3-fluorophenyl)ethyl]amino}(3-pyridyl))-N-(2-hydroxyethyl)carboxamide] |
| 5.15 | C[C@H](CNC(=O)c1ccc(-c2ccccc2C#N)nc1NCCc1cccc(F)c1)N(C)S(C)(=O)=O [N-{(2R)-2-[methyl(methylsulfonyl)amino]propyl}(6-(2-cyanophenyl)-2-{[2-(3-fluorophenyl)ethyl]amino}(3-pyridyl))carboxamide] |
| 6.49 | CS(=O)(=O)NCCNC(=O)c1ccc(-c2ccccc2C#N)nc1NCCc1cccc(F)c1 [(6-(2-cyanophenyl)-2-{[2-(3-fluorophenyl)ethyl]amino}(3-pyridyl))-N-{2-[(methylsulfonyl)amino]ethyl}carboxamide] |
| 6.61 | N#Cc1ccccc1-c1ccc(C(=O)NC[C@H]2CCCN(C(=O)CN)C2)c(NCCc2cccc(F)c2)n1 [N-{[(3R)-1-(2-aminoacetyl)(3-piperidyl)]methyl}(6-(2-cyanophenyl)-2-{[2-(3-fluorophenyl)ethyl]amino}(3-pyridyl))carboxamide] |
| 6.27 | C[C@@H](NC(=O)c1ccc(-c2ccccc2C#N)nc1NCCc1cccc(F)c1)C(N)=O |
| 6.38 | N#Cc1ccccc1-c1ccc(C(=O)NCCCCN)c(NCCc2cccc(F)c2)n1 [N-(4-aminobutyl)(6-(2-cyanophenyl)-2-{[2-(3-fluorophenyl)ethyl]amino}(3-pyridyl))carboxamide] |
| 7.40 | N#Cc1ccccc1-c1ccc(C(=O)NC[C@H]2CCN2C(=O)CO)c(NCCc2cccc(F)c2)n1 [N-{[(2R)-1-(2-hydroxyacetyl)azetidin-2-yl]methyl}(6-(2-cyanophenyl)-2-{[2-(3-fluorophenyl)ethyl]amino}(3-pyridyl))carboxamide] |

Further lines, the compound ahead of its results:

| SMILES | pIC50 |
| --- | --- |
| O=C(NCc1cccnc1)c1ccc(-c2cccs2)nc1NCCc1cccc(F)c1 [(2-{[2-(3-fluorophenyl)ethyl]amino}-6-(2-thienyl)(3-pyridyl))-N-(3-pyridylmethyl)carboxamide] | 6.86 |
| C[C@H](CNC(=O)c1cc(F)c(-c2cnn(C)c2)nc1NCCc1cccc(F)c1)NC(=O)CN(C)C | 6.92 |
| CC(C)(C)OC(=O)N1CCOC(CNC(=O)c2ccc(-c3ccccc3)nc2NCCc2ccccn2)C1 (centres unmarked) [tert-butyl 2-[({6-phenyl-2-[(2-(2-pyridyl)ethyl)amino]-3-pyridyl}carbonylamino)methyl]morpholine-4-carboxylate] | 4.19 |
| NCC(=O)N1CC[C@@H]1CNC(=O)c1ccc(-c2cn[nH]c2)nc1NCCc1cccc(F)c1 [N-{[(2R)-1-(2-aminoacetyl)azetidin-2-yl]methyl}(2-{[2-(3-fluorophenyl)ethyl]amino}-6-pyrazol-4-yl(3-pyridyl))carboxamide] | 6.25 |
| O=C(NCc1cccnc1)c1ccc(-c2ccc(O)cc2)nc1NCCc1ccccn1 [{6-(4-hydroxyphenyl)-2-[(2-(2-pyridyl)ethyl)amino](3-pyridyl)}-N-(3-pyridylmethyl)carboxamide] | 6.23 |
| CC1(C)OCC(CNC(=O)c2cc(F)c(-c3cn[nH]c3)nc2NCCc2cccc(F)c2)CO1 [N-[(2,2-dimethyl(1,3-dioxan-5-yl))methyl](5-fluoro-2-{[2-(3-fluorophenyl)ethyl]amino}-6-pyrazol-4-yl(3-pyridyl))carboxamide] | 6.03 |
| C[C@@H](N)C(=O)N1CCCC[C@@H]1CNC(=O)c1ccc(-c2ccccc2C#N)nc1NCCc1cccc(F)c1 [N-{[(2R)-1-((2R)-2-aminopropanoyl)(2-piperidyl)]methyl}(6-(2-cyanophenyl)-2-{[2-(3-fluorophenyl)ethyl]amino}(3-pyridyl))carboxamide] | 6.58 |
| N#Cc1ccccc1-c1ccc(C(=O)NCc2ccc(N3CCNCC3)nc2)c(NCCc2cccc(F)c2)n1 [(6-(2-cyanophenyl)-2-{[2-(3-fluorophenyl)ethyl]amino}(3-pyridyl))-N-[(6-piperazinyl(3-pyridyl))methyl]carboxamide] | 5.76 |
| NC(=O)CNC(=O)c1ccc(-c2ccccc2)nc1NCCc1ccccc1 [N-(carbamoylmethyl){6-phenyl-2-[(2-phenylethyl)amino](3-pyridyl)}carboxamide] | 6.09 |
| CC(C)(C)OC(=O)NCC(=O)N1CCC[C@H](CNC(=O)c2ccc(-c3ccccc3C#N)nc2NCCc2cccc(F)c2)C1 [N-[((3R)-1-{2-[(tert-butoxy)carbonylamino]acetyl}(3-piperidyl))methyl](6-(2-cyanophenyl)-2-{[2-(3-fluorophenyl)ethyl]amino}(3-pyridyl))carboxamide] | 6.70 |
| N#Cc1ccccc1-c1ccc(C(=O)NC[C@H]2CCCN2C(=O)CCCN)c(NCCc2cc(F)cc(F)c2)n1 [N-{[(2R)-1-(4-aminobutanoyl)pyrrolidin-2-yl]methyl}(2-{[2-(3,5-difluorophenyl)ethyl]amino}-6-(2-cyanophenyl)(3-pyridyl))carboxamide] | 7.64 |
| Cn1cc(-c2nc(NCCc3cccc(F)c3)c(C(=O)NCC(C)(C)O)cc2F)cn1 [(5-fluoro-2-{[2-(3-fluorophenyl)ethyl]amino}-6-(1-methylpyrazol-4-yl)(3-pyridyl))-N-(2-hydroxy-2-methylpropyl)carboxamide] | 6.42 |
| Cn1cc(-c2ccc(C(=O)NC[C@H]3CCCN3C(=O)CCCN)c(NCCc3cccc(F)c3)n2)cn1 [N-{[(2R)-1-(4-aminobutanoyl)pyrrolidin-2-yl]methyl}(2-{[2-(3-fluorophenyl)ethyl]amino}-6-(1-methylpyrazol-4-yl)(3-pyridyl))carboxamide] | 6.45 |
| NC(=O)CNC(=O)c1ccc(-c2ccc(CO)s2)nc1NCCc1cccc(F)c1 [N-(carbamoylmethyl)(2-{[2-(3-fluorophenyl)ethyl]amino}-6-[5-(hydroxymethyl)(2-thienyl)](3-pyridyl))carboxamide] | 6.30 |
| CC(C)(C)OC(=O)NCCc1ncccc1CNC(=O)c1ccc(-c2ccccc2C#N)nc1NCCc1cccc(F)c1 [N-[(2-{2-[(tert-butoxy)carbonylamino]ethyl}(3-pyridyl))methyl](6-(2-cyanophenyl)-2-{[2-(3-fluorophenyl)ethyl]amino}(3-pyridyl))carboxamide] | 6.33 |
| N#Cc1ccccc1-c1ccc(C(=O)NCC2CCN(CCCN)C2=O)c(NCCc2cccc(F)c2)n1 (centres unmarked) [N-{[1-(3-aminopropyl)-2-oxopyrrolidin-3-yl]methyl}(6-(2-cyanophenyl)-2-{[2-(3-fluorophenyl)ethyl]amino}(3-pyridyl))carboxamide] | 6.42 |
| Cn1cc(-c2nc(NCCc3cccc(F)c3)c(C(=O)NC[C@H]3CCCN3C(=O)CCCN)cc2Cl)cn1 [N-{[(2R)-1-(4-aminobutanoyl)pyrrolidin-2-yl]methyl}(5-chloro-2-{[2-(3-fluorophenyl)ethyl]amino}-6-(1-methylpyrazol-4-yl)(3-pyridyl))carboxamide] | 7.33 |
| NCCn1ccc(CNC(=O)c2ccc(-c3cn[nH]c3)nc2NCCc2cccc(F)c2)n1 [N-{[1-(2-aminoethyl)pyrazol-3-yl]methyl}(2-{[2-(3-fluorophenyl)ethyl]amino}-6-pyrazol-4-yl(3-pyridyl))carboxamide] | 5.83 |
| O=C(NCc1ccc(-c2ccccc2)nc1NCCc1cccc(F)c1)Nc1cccnc1 [N-[(2-{[2-(3-fluorophenyl)ethyl]amino}-6-phenyl(3-pyridyl))methyl](3-pyridylamino)carboxamide] | 4.15 |
| O=C(NCc1cccnc1)c1ccc(-c2ccccc2)nc1NCC(O)c1ccccc1 (centres unmarked) [{2-[(2-hydroxy-2-phenylethyl)amino]-6-phenyl(3-pyridyl)}-N-(3-pyridylmethyl)carboxamide] | 5.71 |
